# Patent US6911469B2, “Sulfonamide compounds and pharmaceutical use thereof” (Fujisawa Pharmaceutical Co., Ltd., priority 1997, dated 2005)
row,SMILES,melting point
1,CCCCS(=O)(=O)NC(=O)c1ccc2c(c1)CN(Cc1ccc(Cl)cc1Cl)C(C)=N2.Cl,258 °C (dec.)
2,CCCCCS(=O)(=O)NC(=O)c1ccc2c(c1)N(Cc1ccc(Cl)cc1Cl)C(C)=NC2.Cl,184 to 186 °C
3,"CCCCCS(=O)(=O)NC(=O)c1ccc2sc(C)c(Cc3ccc(Cl)c(Cl)c3)c2c1 [Example 1, 3-(3,4-dichlorobenzyl)-2-methyl-5-(n-pentanesulfonyl-carbamoyl)benzo[b]thiophene]",159 to 160 °C
4,"CCCCCS(=O)(=O)NC(=O)c1ccc2sc(C)c(Cc3cccc(Cl)c3Cl)c2c1 [Example 2, 3-(2,3-dichlorobenzyl)-2-methyl-5-(n-pentanesulfonylcarbamoyl)benzo[b]thiophene]",196 to 197 °C
5,"CCCCCS(=O)(=O)NC(=O)c1ccc2sc(C)c(Cc3cc(Cl)ccc3Cl)c2c1 [Example 3, 3-(2,5-dichlorobenzyl)-2-methyl-5-(n-pentanesulfonylcarbamoyl)benzo[b]thiophene]",147 to 148 °C
6,"CCCCCS(=O)(=O)NC(=O)c1ccc2nc(C)n(Cc3ccc(Cl)cc3Cl)c2n1 [Example 8-1, 3-(2,4-dichlorobenzyl)-2-methyl-5-(n-pentanesulfonylcarbamoyl)-3H-imidazo[4,5-b]pyridine]",174 to 175 °C
7,"CCCCS(=O)(=O)NC(=O)c1ccc2nc(C)n(Cc3ccc(Cl)cc3Cl)c2n1 [Example 8-2, 5-(n-butanesulfonylcarbamoyl)-3-(2,4-dichlorobenzyl)-2-methyl-3H-imidazo[4,5-b]pyridine]",153 to 154 °C
8,"Cc1nc2ccc(C(=O)NS(=O)(=O)c3ccccc3)nc2n1Cc1ccc(Cl)cc1Cl [Example 8-3, 5-benzenesulfonylcarbamoyl-3-(2,4-dichlorobenzyl)-2-methyl-3H-imidazo[4,5-b]pyridine]",193 to 194 °C
9,"CCCCCS(=O)(=O)NC(=O)c1ccc2nc(C)n(Cc3ccc(-c4ccccc4)cc3Cl)c2n1 [Example 9, 3-(2-chloro-4-phenylbenzyl)-2-methyl-5-(n-pentanesulfonylcarbamoyl)-3H-imidazo[4,5-b]pyridine]",155 to 156 °C
10,"CCCCCS(=O)(=O)NC(=O)c1ccc2nc(C)n(Cc3ccc4ccccc4c3Br)c2n1 [Example 10, 3-(1-bromo-2-naphthyl)methyl-2-methyl-5-(n-pentanesulfonylcarbamoyl)-3H-imidazo[4,5-b]pyridine]",200 to 201 °C
11,"CCCCCS(=O)(=O)NC(=O)c1ccc2nc(C)n(Cc3ccc(-c4ccccc4)cc3)c2n1 [Example 11, 2-methyl-5-(n-pentanesulfonyl-carbamoyl)-3-(4-phenylbenzyl)-3H-imidazo[4,5-b]pyridine]",170 to 171 °C
12,"CCCCCS(=O)(=O)NC(=O)c1cc(C)c2nc(CC)n(Cc3ccc(Cl)cc3Cl)c2n1 [Example 15, 3-(2,4-dichlorobenzyl)-2-ethyl-7-methyl-5-(n-pentanesulfonylcarbamoyl)-3H-imidazo[4,5-b]pyridine]",178 to 180 °C
13,"CCCCCS(=O)(=O)NC(=O)c1cc(C)c2nc(CC)n(Cc3ccc(-c4ccccc4)cc3)c2n1 [Example 16, 2-ethyl-7-methyl-5-(n-pentanesulfonylcarbamoyl)-3-(4-phenylbenzyl)-3H-imidazo[4,5-b]pyridine]",210 to 211 °C
14,"CCCCCS(=O)(=O)NC(=O)c1cnc2nc(C)n(Cc3ccc(Cl)cc3Cl)c2c1 [Example 25, 1-(2,4-dichlorobenzyl)-2-methyl-6-(n-pentanesulfonylcarbamoyl)-1H-imidazo[4,5-b]pyridine]",103 to 106 °C
15,"CCCCCS(=O)(=O)NC(=O)c1ccc2nc(C)n(Cc3ccc(Cl)cc3OC)c2n1 [Example 27, 3-(4-chloro-2-methoxybenzyl)-2-methyl-5-(n-pentanesulfonylcarbamoyl)-3H-imidazo[4,5-b]pyridine]",168 to 170 °C

# The next lines start with the values.
row,melting point,SMILES
1,183 to 184 °C,"CCCCCS(=O)(=O)NC(=O)c1ccc2nc(C)n(Cc3ccc(Br)cc3Cl)c2n1 [Example 12-1, 3-(4-bromo-2-chlorobenzyl)-2-methyl-5-(n-pentanesulfonylcarbamoyl)-3H-imidazo[4,5-b]pyridine]"
2,165 to 166 °C,"CCCCS(=O)(=O)NC(=O)c1ccc2nc(C)n(Cc3ccc(Br)cc3Cl)c2n1 [Example 12-2, 3-(4-bromo-2-chlorobenzyl)-5-(n-butanesulfonylcarbamoyl)-2-methyl-3H-imidazo[4,5-b]pyridine]"
3,193 to 194 °C,"Cc1nc2ccc(C(=O)NS(=O)(=O)c3ccccc3)nc2n1Cc1ccc(Br)cc1Cl [Example 12-3, 5-(benzenesulfonylcarbamoyl)-3-(4-bromo-2-chlorobenzyl)-2-methyl-3H-imidazo[4,5-b]pyridine]"
4,167 to 168 °C,"CCCCCS(=O)(=O)NC(=O)c1ccc2nc(C)n(Cc3ccc(Cl)cc3Br)c2n1 [Example 13-1, 3-(2-bromo-4-chlorobenzyl)-2-methyl-5-(n-pentanesulfonylcarbamoyl)-3H-imidazo[4,5-b]pyridine]"
5,189 to 190 °C,"Cc1nc2ccc(C(=O)NS(=O)(=O)c3ccccc3)nc2n1Cc1ccc(Cl)cc1Br [Example 13-2, 5-(benzenesulfonylcarbamoyl)-3-(2-bromo-4-chlorobenzyl)-2-methyl-3H-imidazo[4,5-b]pyridine]"
6,145 to 146 °C,"CCCCS(=O)(=O)NC(=O)c1ccc2nc(C)n(Cc3ccc(Cl)cc3Br)c2n1 [Example 13-3, 3-(2-bromo-4-chlorobenzyl)-5-(n-butanesulfonylcarbamoyl)-2-methyl-3H-imidazo[4,5-b]pyridine]"
7,147 to 148 °C,"CCCCCS(=O)(=O)NC(=O)c1ccc2[nH]c(C)c(Cc3ccc(Cl)cc3Cl)c2n1 [Example 26-1, 3-(2,4-dichlorobenzyl)-2-methyl-5-(n-pentanesulfonylcarbamoyl)pyrrolo[3,2-b]pyridine]"
8,> 250 °C,"Cc1[nH]c2ccc(C(=O)NS(=O)(=O)c3ccccc3)nc2c1Cc1ccc(Cl)cc1Cl [Example 26-2, 3-(2,4-dichlorobenzyl)-2-methyl-5-(benzenesulfonylcarbamoyl)pyrrolo[3,2-b]pyridine]"
9,155 to 157 °C,"CCCCCS(=O)(=O)NC(=O)c1ccc2nc(C)n(Cc3ccc(Cl)cc3C)c2n1 [Example 28-1, 3-(4-chloro-2-methylbenzyl)-2-methyl-5-(n-pentanesulfonylcarbamoyl)-3H-imidazo[4,5-b]pyridine]"
10,235 to 237 °C,"Cc1cc(Cl)ccc1Cn1c(C)nc2ccc(C(=O)NS(=O)(=O)c3ccccc3)nc21 [Example 28-2, 5-benzenesulfonylcarbamoyl-3-(4-chloro-2-methylbenzyl)-2-methyl-3H-imidazo[4,5-b]pyridine]"
11,204 to 214 °C,"Cc1nc2ccc(C(=O)NS(=O)(=O)c3ccccc3)nc2n1Cc1ccc(-c2ccccc2)cc1Cl [Example 29-1, 5-benzenesulfonylcarbamoyl-3-(2-chloro-4-phenylbenzyl)-2-methyl-3H-imidazo[4,5-b]pyridine]"
12,199 to 200 °C,"CCCCS(=O)(=O)NC(=O)c1ccc2nc(C)n(Cc3ccc(-c4ccccc4)cc3Cl)c2n1 [Example 29-2, 5-(n-butanesulfonylcarbamoyl)-3-(2-chloro-4-phenylbenzyl)-2-methyl-3H-imidazo[4,5-b]pyridine]"
